Our source for the IC50 values is ChEMBL document CHEMBL5252560 (Bioorg Med Chem Lett, 2023).

For orientation: IC50 means the concentration at which inhibition is half-maximal.

Format in all cases: functional, cell-based
In one assay the test system is A549. Description: Antiproliferative activity against human A549 cells assessed as cell growth inhibition.
A further assay has as its system U-937. Briefly: Antiproliferative activity against human U-937 cells assessed as cell growth inhibition.
The subject of another assay is HepG2. Description: Antiproliferative activity against human HepG2 cells assessed as cell growth inhibition.
The next assay has as its system Y79. Description: Antiproliferative activity against human Y79 cells assessed as cell growth inhibition.

Consider `COc1cc(C2=NNC(c3ccc4ncccc4c3)C2)cc(OC)c1OC` (centres undefined), for which the IC50 in the assay on A549, in the assay with U-937, with HepG2 and in the assay with Y79 was above 10 µM throughout.

`CCn1c2ccccc2c2cc(C3CC(c4cc(OC)c(OC)c(OC)c4)=NN3)ccc21` (centres undefined): the IC50 in the assay on A549 was above 10 µM; in the assay on U-937, 1.95 µM; with HepG2, 2.32 µM; with Y79 it was above 10 µM.

For the compound `COc1cc(C2=NOC(c3cccc4ccccc34)C2)cc(OC)c1OC` (centres undefined), the IC50 with A549, with U-937, in the assay on HepG2 and with Y79 was above 10 µM in each case.

With `COc1cc(C2=NOC(c3ccc4[nH]ccc4c3)C2)cc(OC)c1OC` (centres undefined), the IC50 is above 10 µM with A549, 5.51 µM in the assay with U-937, above 10 µM in the assay with HepG2 and above 10 µM with Y79.

`COc1cc(C2=NNC(c3ccc4cc[nH]c4c3)C2)cc(OC)c1OC` (centres undefined): the IC50 with A549, with U-937, in the assay with HepG2 and in the assay with Y79 was above 10 µM each time.

For `COc1cc(C(/C=C/c2ccc3oc4ccccc4c3c2)=N/O)cc(OC)c1OC`, the IC50 in the assay on A549 is above 10 µM; with U-937, 9.31 µM; in the assay with HepG2, above 10 µM; in the assay on Y79, above 10 µM.

For the compound `COc1cc(C2=NNC(c3cc4ccccc4o3)C2)cc(OC)c1OC` (centres undefined), the IC50 in the assay on A549, with U-937, in the assay with HepG2 and in the assay with Y79 was above 10 µM each time.

With `COc1cc(C2=NNC(c3coc4ccccc34)C2)cc(OC)c1OC` (centres undefined), the IC50 in the assay with A549, in the assay on U-937, in the assay with HepG2 and in the assay with Y79 was above 10 µM each time.

For `COc1cc(C2=NNC(c3ccc4c(c3)OCCO4)C2)cc(OC)c1OC` (centres undefined), the IC50 with A549, in the assay with U-937, in the assay with HepG2 and in the assay on Y79 was above 10 µM each time.

Take `COc1cc(-c2cc(-c3ccc4c(c3)OCCO4)on2)cc(OC)c1OC`: the IC50 is 5.9 µM with A549, 6.29 µM in the assay with U-937, 8.33 µM with HepG2 and above 10 µM in the assay on Y79.

Turning to `COc1cc(-c2cc(-c3ccc4ccccc4c3)on2)cc(OC)c1OC`, the IC50 in the assay on A549, with U-937, in the assay on HepG2 and in the assay with Y79 was above 10 µM in each case.

As for `COc1cc(C2=NNC(c3csc4ccccc34)C2)cc(OC)c1OC` (centres undefined), the IC50 in the assay on A549, in the assay with U-937, in the assay on HepG2 and with Y79 was above 10 µM throughout.

Regarding `COc1cc(C2=NOC(c3ccc4ccccc4c3)C2)cc(OC)c1OC` (centres undefined), the IC50 in the assay with A549 is above 10 µM; with U-937 it was above 10 µM; in the assay on HepG2, 6.3 µM; in the assay with Y79, above 10 µM.

Take `COc1cc(C2=NNC(c3ccc4c(c3)CCO4)C2)cc(OC)c1OC` (centres undefined): the IC50 is above 10 µM in the assay on A549, above 10 µM in the assay with U-937, 6.93 µM in the assay on HepG2 and above 10 µM in the assay on Y79.

With `COc1cc(C2=NOC(c3cc4ccccc4o3)C2)cc(OC)c1OC` (centres undefined), the IC50 in the assay on A549, with U-937, in the assay on HepG2 and in the assay on Y79 was above 10 µM in each case.

For `COc1cc(C(/C=C/c2ccc3ccccc3c2)=N/O)cc(OC)c1OC`, the IC50 with A549 is above 10 µM; in the assay on U-937 it was above 7.43 µM; with HepG2 it was 0.432 µM; in the assay with Y79, above 10 µM.

Turning to `COc1cc(C2=NNC(c3c[nH]c4cc(Br)ccc34)C2)cc(OC)c1OC` (centres undefined), the IC50 in the assay with A549 was 3.41 µM; with U-937, 1.24 µM; in the assay on HepG2, 4.56 µM; with Y79 it was above 10 µM.

Regarding `COc1cc(C2=NNC(c3cccc4ccccc34)C2)cc(OC)c1OC` (centres undefined), the IC50 in the assay with A549, with U-937, in the assay on HepG2 and in the assay on Y79 was above 10 µM throughout.

For the compound `COC(=O)c1ccc2c(C3CC(c4cc(OC)c(OC)c(OC)c4)=NO3)c[nH]c2c1` (centres undefined), the IC50 in the assay on A549, with U-937, in the assay on HepG2 and in the assay on Y79 was above 10 µM each time.

For `COc1cc(C2=NOC(c3ccc4sc5ccccc5c4c3)C2)cc(OC)c1OC` (centres undefined), the IC50 in the assay on A549 was above 10 µM; in the assay on U-937, 0.233 µM; with HepG2, 1.68 µM; in the assay with Y79, above 10 µM.

With `COc1cc(C2=NOC(c3ccc4occc4c3)C2)cc(OC)c1OC` (centres undefined), the IC50 in the assay with A549, with U-937, in the assay with HepG2 and in the assay with Y79 was above 10 µM in each case.

In the case of `COc1cc(C2=NNC(c3ccc4occc4c3)C2)cc(OC)c1OC` (centres undefined), the IC50 in the assay with A549, in the assay with U-937, in the assay on HepG2 and in the assay with Y79 was above 10 µM each time.

Turning to `COc1cc(C2=NNC(c3ccc4sc5ccccc5c4c3)C2)cc(OC)c1OC` (centres undefined), the IC50 in the assay on A549, with U-937, with HepG2 and with Y79 was above 10 µM throughout.

For `COc1cc(C2=NOC(c3ccc4c(c3)OCCO4)C2)cc(OC)c1OC` (centres undefined), the 50% inhibitory concentration (IC50) in the assay on A549, in the assay with U-937, with HepG2 and in the assay with Y79 was above 10 µM each time.

In the case of `COc1cc(C2=NNC(c3cc4ccccc4s3)C2)cc(OC)c1OC` (centres undefined), the IC50 with A549, in the assay on U-937, with HepG2 and with Y79 was above 10 µM in each case.

Regarding `COc1cc(C(/C=C/c2ccc3sc4ccccc4c3c2)=N/O)cc(OC)c1OC`, the IC50 in the assay with A549 is above 10 µM; with U-937, 1.39 µM; in the assay on HepG2, 0.743 µM; in the assay on Y79, above 10 µM.

For the compound `COc1cc(C2=NNC(c3ccc4ccccc4c3)C2)cc(OC)c1OC` (centres undefined), the IC50 in the assay on A549, in the assay with U-937, with HepG2 and with Y79 was above 10 µM in each case.

Take `COc1cc(C(/C=C/c2ccc3ncccc3c2)=N/O)cc(OC)c1OC`: the IC50 with A549 was 0.445 µM; with U-937 it was 0.475 µM; in the assay on HepG2, 0.466 µM; with Y79, above 10 µM.

For `COc1cc(C2=NOC(c3c[nH]c4ccccc34)C2)cc(OC)c1OC` (centres undefined), the IC50 is above 10 µM with A549, 3.38 µM with U-937, 5.61 µM with HepG2 and above 10 µM with Y79.

For the compound `COc1cc(C2=NOC(c3ccc4c(c3)CCO4)C2)cc(OC)c1OC` (centres undefined), the IC50 in the assay on A549, with U-937, in the assay on HepG2 and in the assay with Y79 was above 10 µM throughout.

`COc1cc(C2=NNC(c3ccc4[nH]ccc4c3)C2)cc(OC)c1OC` (centres undefined): the IC50 was 2.79 µM with A549, 0.953 µM with U-937, 3.42 µM in the assay with HepG2 and above 10 µM with Y79.

As to `COc1cc(-c2cc(-c3cccc4ccccc34)on2)cc(OC)c1OC`, the IC50 in the assay on A549 was above 10 µM; in the assay on U-937, 0.919 µM; in the assay with HepG2, above 10 µM; with Y79, above 10 µM.

Regarding `COc1cc(C2=NOC(c3ccc4ncccc4c3)C2)cc(OC)c1OC` (centres undefined), the IC50 with A549, with U-937, in the assay on HepG2 and with Y79 was above 10 µM each time.

For the compound `CCn1c2ccccc2c2cc(C3CC(c4cc(OC)c(OC)c(OC)c4)=NO3)ccc21` (centres undefined), the IC50 with A549 was above 10 µM; in the assay with U-937, 1.56 µM; in the assay with HepG2, 4.37 µM; in the assay on Y79 it was above 10 µM.

Consider `COc1cc(C(/C=C/c2ccc3occc3c2)=N/O)cc(OC)c1OC`, for which the IC50 is above 10 µM in the assay on A549, 0.873 µM in the assay on U-937, 0.179 µM with HepG2 and 0.371 µM with Y79.

Regarding `COc1cc(C2=NOC(c3cc(OC)c(OC)c(OC)c3)C2)cc(OC)c1OC` (centres undefined), the IC50 in the assay with A549, with U-937, with HepG2 and in the assay on Y79 was above 10 µM throughout.

As to `COc1cc(C2=NNC(c3c[nH]c4ccccc34)C2)cc(OC)c1OC` (centres undefined), the IC50 in the assay on A549 is 7.13 µM; with U-937, 3.49 µM; with HepG2, 4.35 µM; in the assay on Y79, above 10 µM.

As for `COc1cc(C(/C=C/c2cc3ccccc3s2)=N/O)cc(OC)c1OC`, the IC50 was above 10 µM in the assay with A549, 0.284 µM with U-937, 0.493 µM with HepG2 and above 10 µM in the assay on Y79.

As for `COc1cc(-c2cc(-c3cccc4c3OCO4)on2)cc(OC)c1OC`, the IC50 in the assay on A549, with U-937, with HepG2 and in the assay on Y79 was above 10 µM throughout.

On to `COc1cc(C2=NNC(c3ccc4oc5ccccc5c4c3)C2)cc(OC)c1OC` (centres undefined), for which the IC50 in the assay on A549, in the assay with U-937, in the assay with HepG2 and in the assay on Y79 was above 10 µM each time.

Regarding `CCn1c2ccccc2c2cc(/C=C/C(=N\O)c3cc(OC)c(OC)c(OC)c3)ccc21`, the IC50 in the assay on A549 was 1.96 µM; with U-937, 5.21 µM; with HepG2 it was 0.692 µM; in the assay with Y79, above 10 µM.

As for `COc1cc(C2=NOC(c3ccc4oc5ccccc5c4c3)C2)cc(OC)c1OC` (centres undefined), the IC50 in the assay with A549, with U-937, in the assay with HepG2 and with Y79 was above 10 µM throughout.

Take `COc1cc(C(/C=C/c2cccc3ccccc23)=N/O)cc(OC)c1OC`: the IC50 was above 10 µM in the assay on A549, 10 µM in the assay with U-937, 0.601 µM in the assay with HepG2 and above 10 µM in the assay with Y79.

In the case of `COc1cc(C2=NOC(c3csc4ccccc34)C2)cc(OC)c1OC` (centres undefined), the IC50 with A549, with U-937, in the assay on HepG2 and with Y79 was above 10 µM in each case.

For the compound `COc1cc(C2=NOC(c3cccc4c3OCO4)C2)cc(OC)c1OC` (centres undefined), the IC50 in the assay with A549, in the assay with U-937, in the assay with HepG2 and in the assay on Y79 was above 10 µM each time.

Consider `COc1cc(C2=NNC(c3cccc4c3OCO4)C2)cc(OC)c1OC` (centres undefined), for which the IC50 in the assay with A549, with U-937, with HepG2 and in the assay with Y79 was above 10 µM each time.
